Assay results from patent US9426996B2, “Use of benzoxaboroles as volatile antimicrobial agents on meats, plants, or plant parts” (AgroFresh Inc., priority 2013, dated 2016).

What was measured:
Penicillium digitatum = assay: in vivo volatile bioassay using orange fruit (Compound A); settings: oranges
Experimental: In order to assess the in vivo activity of volatile antimicrobial Compound A in fruit, a volatile bioassay is developed using orange fruit. Two oranges are placed inside a PET clamshell. Three fresh wounds per orange are inoculated with 30 μL of 1×10^6 per mL Penicillium digitatum spore suspension. The clamshells are placed inside a 10.8-cup SnapWare airtight container (Model #109842). A 42.5 mm Whatman #1 filter disk (Cat. No. 1001-042) is placed on a watch glass. Compound A is dissolved in acetone and added to the disks in a dose dependent manner to produce a final headspace concentration of 2, 10, or 50 mg/L. The acetone is permitted to evaporate for five minutes. The containers are then closed with the lids and placed for three days at 21° C. After storage, fruits are evaluated for disease incidence (mm diameter of the rot) and pathogen sporulation (mm diameter) on the surface of the fruits for an additional two days at 21° C., with results summarized in Table 18.

Botrytis cinerea [1] = assay: combination treatment with 1-MCP on white roses; format: in vivo; settings: three day volatile treatment at 21° C.
Experimental: To evaluate a combination treatment of Compound A with 1-methylcyclopropene (1-MCP), an in vivo experiment is performed on white roses.
Five white roses are placed in an 800 mL jar containing 200 mL of a common commercial flower preservative. Three jars are then placed in a 117 L Rubbermaid storage box (Cat #2244). Two small fans are placed in opposite ends of the container to assist with the distribution of the two volatiles. A 500 parts per billion (ppb) volume per volume (v/v) 1-MCP treatment is applied (AgroFresh, Springhouse, Pa.) for 24 hours at 21° C. After the 1-MCP treatment is completed, the containers are vented, and Compound A powder is applied in a dose dependent manner to achieve a final headspace concentration of 0.2, 0.04, or 0.008 mg/L with a sublimation device (copper tube heated to 200° C. with fan flow at 0.5 L/min), with the end of the tube penetrating through a ½ inch side port in the container that is sealed immediately after the application. The flowers are incubated for three days at 21° C. After treatment, the flowers are evaluated for an additional seven days at 21° C. for disease incidence and severity of the flower petals.

Botrytis cinerea [2] = assay: in vivo volatile bioassay using strawberry
Experimental: In order to assess the in vivo activity of volatile antimicrobial compounds, a volatile bioassay is developed using strawberry. Two fruit are placed inside a 240 mL jar, with the calyx facing downwards. […] The acetone is permitted to evaporate for 5 minutes. The jars are then capped with the lids containing the fungicide, and placed for 5 days at 21° C. After storage, fruit are evaluated for incidence and severity of disease and appearance of phytotoxicity.

Botrytis cinerea [3] = assay: in vivo volatile bioassay using green table grape
Experimental: In order to assess the in vivo activity of volatile antimicrobial compounds, a volatile bioassay is developed using green table grape. Fruit are placed individually inside a 20 mL scintillation vial, with the stem wound facing upwards. The fresh stem wound is inoculated with 10 μL of 1×10^6 per mL Botrytis cinerea spore suspension. Whatman filter paper (Cat. No. 1822-024) is placed inside duplicate vial caps. […] The acetone is permitted to evaporate for 5 minutes. The vials are then capped with the lids containing the fungicide, and placed for 14 days at 4° C. After storage, fruit are evaluated for incidence of disease and appearance of phytotoxicity.

For OB1OCc2cc(F)ccc21 [Compound A], the “Sporulation (mm)” value (Penicillium digitatum; 2 mg/L, Day 0) was 0 mm, the “Water soaked lesions (mm)” value (Penicillium digitatum; 2 mg/L, Day 0) was 0 mm and the “Sporulation (mm)” value (Penicillium digitatum; 2 mg/L, Day 1) was 0.4 mm. For the same molecule, the “Water soaked lesions (mm)” value (Penicillium digitatum; 2 mg/L, Day 1) was 0 mm, the “Sporulation (mm)” value (Penicillium digitatum; 2 mg/L, Day 2) was 2.7 mm and the “Water soaked lesions (mm)” value (Penicillium digitatum; 2 mg/L, Day 2) was 13.4 mm. For the same molecule, the “Sporulation (mm)” value (Penicillium digitatum; 10 mg/L, Day 0) was 0.5 mm, the “Water soaked lesions (mm)” value (Penicillium digitatum; 10 mg/L, Day 0) was 0 mm and the “Sporulation (mm)” value (Penicillium digitatum; 10 mg/L, Day 1) was 0.4 mm. For the same molecule, the “Water soaked lesions (mm)” value (Penicillium digitatum; 10 mg/L, Day 1) was 0 mm, the “Sporulation (mm)” value (Penicillium digitatum; 10 mg/L, Day 2) was 2.5 mm and the “Water soaked lesions (mm)” value (Penicillium digitatum; 10 mg/L, Day 2) was 9 mm. The “Sporulation (mm)” value (Penicillium digitatum; 50 mg/L, Day 0) was 0 mm, the “Water soaked lesions (mm)” value (Penicillium digitatum; 50 mg/L, Day 0) was 0 mm and the “Sporulation (mm)” value (Penicillium digitatum; 50 mg/L, Day 1) was 0 mm. For the same molecule, the “Water soaked lesions (mm)” value (Penicillium digitatum; 50 mg/L, Day 1) was 0 mm, the “Sporulation (mm)” value (Penicillium digitatum; 50 mg/L, Day 2) was 1.2 mm and the “Water soaked lesions (mm)” value (Penicillium digitatum; 50 mg/L, Day 2) was 5 mm. For the same molecule, the “Incidence (%)” value (Botrytis cinerea [1]; 0.008 mg/L) was 20.0%, the “Severity (0-4)” value (Botrytis cinerea [1]; 0.008 mg/L) was 0.2 and the “Incidence (%)” value (Botrytis cinerea [1]; 0.04 mg/L) was 20.0%. The “Severity (0-4)” value (Botrytis cinerea [1]; 0.04 mg/L) was 0.03, the “Incidence (%)” value (Botrytis cinerea [1]; 0.2 mg/L) was 0.0% and the “Severity (0-4)” value (Botrytis cinerea [1]; 0.2 mg/L) was 0.0. The “Percent (%) Incidence of Botrytis cinerea on Strawberry (in vivo)” value (shortened to “Percent (%) Incidence”) (Botrytis cinerea [2]; 0.005 mg/disk, 5 days at 21° C.) was 75%, the “Percent (%) Incidence” value (Botrytis cinerea [2]; 0.01 mg/disk, 5 days at 21° C.) was 100% and the “Percent (%) Incidence” value (Botrytis cinerea [2]; 0.02 mg/disk, 5 days at 21° C.) was 50%. The “Percent (%) Incidence” value (Botrytis cinerea [2]; 0.04 mg/disk, 5 days at 21° C.) was 75%, the “Percent (%) Incidence” value (Botrytis cinerea [2]; 0.08 mg/disk, 5 days at 21° C.) was 0% and the “Percent (%) Incidence” value (Botrytis cinerea [2]; 0.16 mg/disk, 5 days at 21° C.) was 0%. For the same molecule, the “Percent (%) Incidence” value (Botrytis cinerea [2]; 0.32 mg/disk, 5 days at 21° C.) was 0%, the “Percent (%) Incidence” value (Botrytis cinerea [2]; 0.64 mg/disk, 5 days at 21° C.) was 0% and the “Percent (%) Incidence” value (Botrytis cinerea [2]; 1.25 mg/disk, 5 days at 21° C.) was 0%. The “Percent (%) Incidence” value (Botrytis cinerea [2]; 2.5 mg/disk, 5 days at 21° C.) was 0%, the “lowest rate with 100% control of Botrytis cinerea” value (Botrytis cinerea [2]; strawberry, 5 days at 21° C.) was 0.16 mg/disk and the appearance of phytotoxicity (Botrytis cinerea [2]; strawberry, any of the rates evaluated (2.5 to 0.005 mg/disk)) was “no evidence of phytotoxicity”. The “Botrytis inhibition % (in vivo)” value (Botrytis cinerea [3]; 0.005 mg per disk, 14 days at 4° C.) was 0%, the “Botrytis inhibition % (in vivo)” value (Botrytis cinerea [3]; 0.01 mg per disk, 14 days at 4° C.) was 0% and the “Botrytis inhibition % (in vivo)” value (Botrytis cinerea [3]; 0.023 mg per disk, 14 days at 4° C.) was 0%. The “Botrytis inhibition % (in vivo)” value (Botrytis cinerea [3]; 0.04 mg per disk, 14 days at 4° C.) was 100%, the “Botrytis inhibition % (in vivo)” value (Botrytis cinerea [3]; 0.08 mg per disk, 14 days at 4° C.) was 100% and the “Botrytis inhibition % (in vivo)” value (Botrytis cinerea [3]; 0.16 mg per disk, 14 days at 4° C.) was 100%. For the same molecule, the “Botrytis inhibition % (in vivo)” value (Botrytis cinerea [3]; 0.31 mg per disk, 14 days at 4° C.) was 100%, the “Botrytis inhibition % (in vivo)” value (Botrytis cinerea [3]; 0.63 mg per disk, 14 days at 4° C.) was 100% and the “Botrytis inhibition % (in vivo)” value (Botrytis cinerea [3]; 1.25 mg per disk, 14 days at 4° C.) was 100%. The “lowest rate with 100% control of Botrytis cinerea” value (Botrytis cinerea [3]; 14 days at 4° C.) was 0.04 mg/disk and the appearance of phytotoxicity (Botrytis cinerea [3]; any of the rates evaluated (2.5 to 0.0024 mg/disk)) was “no evidence of phytotoxicity”.
